This assay deals with PAD4 (Homo sapiens, UniProt Q9UM07). The assay can be described thus: PAD4 Inhibition Assay (citrulline formation from BAEE substrate). Format: biochemical. Particulars: PAD4 75 nM, 60 minute preincubation at 37° C., 90 minutes. As for the experimental part:
PAD4 was diluted to 75 nM in Assay Buffer (50 mM Tris-HCl, 2 mM CaCl2), 2 mM DTT, 1 mM PMSF in H2O) and added to wells with various concentrations of compound or DMSO vehicle in Eppendorf tubes (final volume was 100 μL). Following a 60 minute preincubation at 37° C., the reaction was initiated by the addition of 10 μL substrate (22 mM BAEE in H2O) at 37° C. The reaction was stopped after 90 minutes by the addition of 25 μL HClO4 (5 M), 125 μL Reagent A (10 g/L diacetyl monoxime and 15 g/L NaCl in H2O) and 250 μL Reagent B (10 mg/mL antipyrine and 1.0 mg/mL FeCl3 diluted in detection buffer containing 25% H2SO4, 25% H3PO4 and 50% H2O) in sequence. This assay was quenched in an ice-bath for 5 minutes after boiling for 30 minutes. The citrulline formation was measured in fluorescence (κ=465 nm) on microplate reader and the IC50 was calculated by GraphPad Prism.

As usually defined, the IC50 is the concentration needed to halve the response being measured.

Chain of PAD4 (Q9UM07 whole entry): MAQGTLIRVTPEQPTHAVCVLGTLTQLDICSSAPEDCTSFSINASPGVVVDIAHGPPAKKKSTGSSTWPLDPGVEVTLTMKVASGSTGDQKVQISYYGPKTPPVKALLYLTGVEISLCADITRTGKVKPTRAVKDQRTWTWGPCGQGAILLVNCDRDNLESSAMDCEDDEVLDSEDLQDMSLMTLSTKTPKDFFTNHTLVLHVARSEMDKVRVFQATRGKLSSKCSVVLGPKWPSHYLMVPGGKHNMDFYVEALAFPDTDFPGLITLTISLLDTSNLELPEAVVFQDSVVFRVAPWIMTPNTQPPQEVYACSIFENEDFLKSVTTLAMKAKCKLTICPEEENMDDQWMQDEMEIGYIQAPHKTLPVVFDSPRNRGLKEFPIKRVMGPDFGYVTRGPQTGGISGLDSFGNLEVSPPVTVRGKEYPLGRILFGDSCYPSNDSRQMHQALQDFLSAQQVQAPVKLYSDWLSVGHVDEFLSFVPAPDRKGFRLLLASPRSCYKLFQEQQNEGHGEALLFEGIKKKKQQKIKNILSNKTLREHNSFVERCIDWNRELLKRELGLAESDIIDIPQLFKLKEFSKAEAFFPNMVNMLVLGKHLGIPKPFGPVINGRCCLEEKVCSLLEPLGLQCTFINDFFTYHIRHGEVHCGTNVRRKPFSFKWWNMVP

As to `COc1cccc(Cl)c1C(=O)N[C@@H](CCCNC(=N)CF)c1ncc(-c2cccc(C(F)(F)F)c2)o1` [EX-27, (S)-2-Chloro-N-(4-(2-fluoroacetimidamido)-1-(5-(3-(trifluoromethyl)phenyl)oxazol-2-yl)butyl)-6-methoxybenzamide], the IC50 is above 500 nM. For the molecule `COc1cccc(Cl)c1C(=O)N[C@@H](CCCNC(=N)CF)c1ncc(-c2cccc(C)c2)o1` [EX-28, (S)-2-Chloro-N-(4-(2-fluoroacetimidamido)-1-(5-(m-tolyl)oxazol-2-yl)butyl)-6-methoxybenzamide], the IC50 lay within 200 to 500 nM.

Take `COc1cccc(Cl)c1C(=O)N[C@@H](CCCNC(=N)CF)c1ncc(-c2ccc(N(C)C)cc2)o1` [EX-29, (S)-2-Chloro-N-(1-(5-(4-(dimethylamino)phenyl)oxazol-2-yl)-4-(2-fluoroacetimidamido)butyl)-6-methoxybenzamide]: the IC50 is above 500 nM. The value for `N=C(CF)NCCC[C@H](NC(=O)c1c(Cl)cccc1Cl)c1ncc(-c2ccc(F)cc2)o1` [EX-30, (S)-2,6-Dichloro-N-(4-(2-fluoroacetimidamido)-1-(5-(4-fluorophenyl)oxazol-2-yl)butyl)benzamide] was above 500 nM; that for `COc1cccc(F)c1C(=O)N[C@@H](CCCNC(=N)CF)c1ncc(-c2cccc(C)c2)o1` [EX-31, (S)-2-Fluoro-N-(4-(2-fluoroacetimidamido)-1-(5-(m-tolyl)oxazol-2-yl)butyl)-6-methoxybenzamide] was 200 to 500 nM. Next, `Cc1cccc(-c2cnc([C@H](CCCNC(=N)CF)NC(=O)c3c(F)cccc3F)o2)c1` [EX-32, (S)-2,6-Difluoro-N-(4-(2-fluoroacetimidamido)-1-(5-(m-tolyl)oxazol-2-yl)butyl)benzamide]: 200 to 500 nM; `COc1cccc(Cl)c1C(=O)N[C@@H](CCCNC(=N)CF)c1ncc(-c2cccc(Cl)c2)o1` [EX-33, (S)-2-Chloro-N-(1-(5-(3-chlorophenyl)oxazol-2-yl)-4-(2-fluoroacetimidamido)butyl)-6-methoxybenzamide]: 200 to 500 nM. The value for `N=C(CF)NCCC[C@H](NC(=O)c1c(F)cccc1Cl)c1ncc(-c2cccc(Cl)c2)o1` [EX-35, (S)-2-Chloro-N-(1-(5-(3-chlorophenyl)oxazol-2-yl)-4-(2-fluoroacetimidamido)butyl)-6-fluorobenzamide] was 200 to 500 nM; that for `COc1cc2ccccc2cc1C(=O)N[C@@H](CCCNC(=N)CF)c1ncc(-c2ccccc2)o1` [EX-36, (S)—N-(4-(2-fluoroacetimidamido)-1-(5-phenyloxazol-2-yl)butyl)-3-methoxy-2-naphthamide] was below 200 nM.

`COc1ccccc1C(=O)N[C@@H](CCCNC(=N)CF)c1ncc(-c2ccccc2)[nH]1` [EX-37, (S)—N-(4-(2-fluoroacetimidamido)-1-(5-phenyl-1H-imidazol-2-yl)butyl)-2-methoxybenzamide] showed an IC50 above 500 nM. `COc1ccc(-c2ccccc2)cc1C(=O)N[C@@H](CCCNC(=N)CF)c1ncc(-c2ccccc2)o1` [EX-38, (S)—N-(4-(2-fluoroacetimidamido)-1-(5-phenyloxazol-2-yl)butyl)-4-methoxy-[1,1′-biphenyl]-3-carboxamide]: the IC50 was in the range of 200 to 500 nM. `COc1cccc(OC)c1C(=O)N[C@@H](CCCNC(=N)CF)c1nnc(-c2ccc(Cl)cc2)o1` [EX-39, (S)—N-(1-(5-(4-Chlorophenyl)-1,3,4-oxadiazol-2-yl)-4-(2-fluoroacetimidamido)butyl)-2,6-dimethoxybenzamide] had a concentration for half-maximal inhibition (IC50) above 500 nM. The value for `COc1cccc(OC)c1C(=O)N[C@@H](CCCNC(=N)CF)c1nc(-c2ccc(Cl)cc2)no1` [EX-40] was above 500 nM; that for `COc1cccc(Cl)c1C(=O)N[C@@H](CCCNC(=N)CF)c1ncc(-c2cccc(NC(=O)CCCNC(=O)CCCC[C@@H]3SC[C@@H]4NC(=O)N[C@@H]43)c2)o1` [EX-41, 2-Chloro-N—((S)-4-(2-fluoroacetimidamido)-1-(5-(3-(4-(5-((3aS,4S,6aR)-2-oxohexahydro-1H-thieno[3,4-d]imidazol-4-yl)pentanamido)butanamido)phenyl)oxazol-2-yl)butyl)-6-methoxybenzamide] was 200 to 500 nM. Molecule `COc1ccc(OCCCNC(=O)CCCC(=O)NCCCOCCOCCOCCCNC(=O)CCCC[C@@H]2SC[C@@H]3NC(=O)N[C@@H]32)cc1C(=O)N[C@@H](CCCNC(=N)CF)c1ncc(-c2cccc(Cl)c2)o1` [EX-42, N^1-(3-(3-(((S)-1-(5-(3-Chlorophenyl)oxazol-2-yl)-4-(2-fluoroacetimidamido)butyl)carbamoyl)-4-methoxyphenoxy)propyl)-N^5-(15-oxo-19-((3aS,4S,6aR)-2-oxohexahydro-1H-thieno[3,4-d]imidazol-4-yl)-4,7,10-trioxa-14-azanonadecyl)glutaramide] had an IC50 above 500 nM.
